Data: US7563864B2, “Prolyl endopeptidase mediated destruction of T cell epitopes in whole gluten” (Celiac Sprue Research Foundation, priority 2004, dated 2009)

Experiments:
[1] = Chymotrypsin activity assay; type: biochemical; conditions: standard chromogenic assay; pH 7.8, 25° C.
Method: Chymotrypsin: 750 μL 80 mM Tris-HCl, 100 mM CaCl2, pH 7.8 and 700 μL 1.07 mM BTEE (in Water/MeOH 1:1) were mixed and incubated at room temperature for 10′. 5 μL Chymotrypsin (1 mg/ml) were added and the absorption at 256 nm was recorded for 2′, every 10″. One unit hydrolyzes 1 μmol of BTEE per min at pH 7.8 and 25° C. Extinction coefficient 0.964 cm^2/μmol at 256 nm. 1 BTEE unit=29.55 USP units.

[2] = Elastase activity assay; type: biochemical; conditions: standard chromogenic assay; pH 8.0, 25° C.
Method: Elastase: 935 μL 0.1 M Tris (pH 8.0) and 65 μL of Succinyl-Ala3-p-Nitro anilide (4.4 mM in 0.1 M Tris, pH 8.0) were mixed and incubated at room temperature for 10′. 5 μL Elastase (0.2 mg/ml) were added and the absorption at 410 nm was recorded for 2′, every 10″. One unit hydrolyzes 1 μmol of Succinyl-Ala3-p-Nitro anilide per min at pH 8.0 and 25° C. Extinction coefficient 8.8 cm^2/μmol at 410 nm. […].

[3] = system: intestinal T cell line 421.1.4; test: T cell proliferation assay, polyclonal T cell line 421.1.4; type: cell-based, human; set-up: key: −: no response; Stimulatory index (SI; T + APC + TG2-treated peptide divided by T + APC) of 3-10; ++: SI above 10; conditions: DQ2+ APC, 5 μM TG2-treated peptide, 3H thymidine incorporation
Text: (§1) T cell assays—The generation of polyclonal gluten-specific T cell lines derived from ex vivo gluten challenged small intestinal biopsy specimens of adult Celiac Sprue patients have been described elsewhere. For this study 14 different intestinal T cell lines derived from 13 DQ2+celiac patients were selected based on two basic criteria; effective recognition of TG2-treated digests of gluten and significant responses to at least two different gluten epitopes (Table 2). The generation of intestinal T cell clones and the epitope specificity of these clones, except TCC 387.3, has been described elsewhere (10). The TCC 387.3 recognizes a TG2-dependent epitope, defined as γ-VI that is contained within residues 62-72 (PQQPFPQQPQQ) of recombinant γ-5 gliadin. The freeze-dried, proteolyzed gluten samples were dissolved in PBS with 2 mM CaCl2 and treated with 150 μg/ml human recombinant TG2 (14) or, in some experiments 200 μg/ml guinea pig transglutaminase (Sigma T-5398), for 2 hours at 37° C. The TG2-treated samples were incubated overnight in triplicates on U-bottomed 96 well plates with 75 000 cells per well of DQ2 homozygous, irradiated (75 Gy) EBV-transformed B-lymphoblastoid cell lines in a volume of 100 μl 15% pooled, inactivated human serum and RPMI1640. After the incubation 50 μl of freshly thawed T cells (1×10^6 cells/ml) were added to each well. The proliferation in the wells was evaluated by ^3H thymidine incorporation from 48-72 hours after the addition of the T cells.

[4] = system: intestinal T cell line 422.4.2; test: T cell proliferation assay, polyclonal T cell line 422.4.2; type: cell-based, human; set-up: key: −: no response; Stimulatory index (SI; T + APC + TG2-treated peptide divided by T + APC) of 3-10; ++: SI above 10; conditions: DQ2+ APC, 5 μM TG2-treated peptide, 3H thymidine incorporation
Text: as §1

[5] = system: intestinal T cell line 432.2.1; test: T cell proliferation assay, polyclonal T cell line 432.2.1; type: cell-based, human; set-up: key: −: no response; Stimulatory index (SI; T + APC + TG2-treated peptide divided by T + APC) of 3-10; ++: SI above 10; conditions: DQ2+ APC, 5 μM TG2-treated peptide, 3H thymidine incorporation
Text: as §1

[6] = system: intestinal T cell line 437.1.1; test: T cell proliferation assay, polyclonal T cell line 437.1.1; type: cell-based, human; set-up: key: −: no response; Stimulatory index (SI; T + APC + TG2-treated peptide divided by T + APC) of 3-10; ++: SI above 10; conditions: DQ2+ APC, 5 μM TG2-treated peptide, 3H thymidine incorporation
Text: as §1

[7] = system: intestinal T cell line 437.1.3; test: T cell proliferation assay, polyclonal T cell line 437.1.3; type: cell-based, human; set-up: key: −: no response; Stimulatory index (SI; T + APC + TG2-treated peptide divided by T + APC) of 3-10; ++: SI above 10; conditions: DQ2+ APC, 5 μM TG2-treated peptide, 3H thymidine incorporation
Text: as §1

[8] = system: intestinal T cell line 446.1.3; test: T cell proliferation assay, polyclonal T cell line 446.1.3; type: cell-based, human; set-up: key: −: no response; Stimulatory index (SI; T + APC + TG2-treated peptide divided by T + APC) of 3-10; ++: SI above 10; conditions: DQ2+ APC, 5 μM TG2-treated peptide, 3H thymidine incorporation
Text: as §1

[9] = system: intestinal T cell line 451.1.1; test: T cell proliferation assay, polyclonal T cell line 451.1.1; type: cell-based, human; set-up: key: −: no response; Stimulatory index (SI; T + APC + TG2-treated peptide divided by T + APC) of 3-10; ++: SI above 10; conditions: DQ2+ APC, 5 μM TG2-treated peptide, 3H thymidine incorporation
Text: as §1

[10] = system: intestinal T cell line 461.1.4; test: T cell proliferation assay, polyclonal T cell line 461.1.4; type: cell-based, human; set-up: key: −: no response; Stimulatory index (SI; T + APC + TG2-treated peptide divided by T + APC) of 3-10; ++: SI above 10; conditions: DQ2+ APC, 5 μM TG2-treated peptide, 3H thymidine incorporation
Text: as §1

[11] = system: intestinal T cell line 482.1.4; test: T cell proliferation assay, polyclonal T cell line 482.1.4; type: cell-based, human; set-up: key: −: no response; Stimulatory index (SI; T + APC + TG2-treated peptide divided by T + APC) of 3-10; ++: SI above 10; conditions: DQ2+ APC, 5 μM TG2-treated peptide, 3H thymidine incorporation
Text: as §1

[12] = system: intestinal T cell line 488.3.1; test: T cell proliferation assay, polyclonal T cell line 488.3.1; type: cell-based, human; set-up: key: −: no response; Stimulatory index (SI; T + APC + TG2-treated peptide divided by T + APC) of 3-10; ++: SI above 10; conditions: DQ2+ APC, 5 μM TG2-treated peptide, 3H thymidine incorporation
Text: as §1

[13] = system: intestinal T cell line 491.1.3; test: T cell proliferation assay, polyclonal T cell line 491.1.3; type: cell-based, human; conditions: DQ2+ APC, 5 μM TG2-treated peptide, 3H thymidine incorporation
Text: as §1

[14] = system: intestinal T cell line 494.1.1; test: T cell proliferation assay, polyclonal T cell line 494.1.1; type: cell-based, human; set-up: key: −: no response; Stimulatory index (SI; T + APC + TG2-treated peptide divided by T + APC) of 3-10; ++: SI above 10; conditions: DQ2+ APC, 5 μM TG2-treated peptide, 3H thymidine incorporation
Text: as §1

[15] = system: intestinal T cell line 496.1.2; test: T cell proliferation assay, polyclonal T cell line 496.1.2; type: cell-based, human; set-up: key: −: no response; Stimulatory index (SI; T + APC + TG2-treated peptide divided by T + APC) of 3-10; ++: SI above 10; conditions: DQ2+ APC, 5 μM TG2-treated peptide, 3H thymidine incorporation
Text: as §1

[16] = system: intestinal T cell line 502.1.2; test: T cell proliferation assay, polyclonal T cell line 502.1.2; type: cell-based, human; set-up: key: −: no response; Stimulatory index (SI; T + APC + TG2-treated peptide divided by T + APC) of 3-10; ++: SI above 10; conditions: DQ2+ APC, 5 μM TG2-treated peptide, 3H thymidine incorporation
Text: as §1

[17] = system: denatured hemoglobin substrate; test: Pepsin activity assay; type: biochemical; conditions: standard chromogenic assay; 37° C.
Method: Activity assays—Pepsin: 300 μL 2.5% Hemoglobin and 75 μL 0.3 M HCl were mixed and incubated for 10′ at 37° C., then added to 75 μL pepsin solution (0.1 mg/ml in 0.01 M HCl, pH=2.0). The samples were incubated for 0′, 10′ and 20′ at 37° C. (3 samples), and the reaction was stopped by addition of 750 μL 5% Trichloroacetic acid (TCA), and incubated 5′ at 37° C. For the 0′ samples, the TCA was added before the hemoglobin. Samples were centrifuged for 10′ at 13400×g. The absorption was recorded at 280 nm. One unit renders TCA soluble absorption of 0.001 at 280 nm per min at 37° C. from a denatured hemoglobin substrate.

[18] = Trypsin activity assay; type: biochemical; conditions: standard chromogenic assay; pH 8.2, 25° C.
Method: Trypsin: 870 μL 46 mM Tris-HCl, 11.5 mM CaCl2, pH 8.1 and 100 μL 10 mM N-α-p-Tosyl-L-Arginine methyl ester (TAME) were mixed and incubated at room temperature for 10′. 5 μL Trypsin (1 mg/ml) were added and the absorption at 247 nm was recorded for 2′, every 10″. Unit definition: One unit hydrolyzes 1 μmol of TAME per min at pH 8.2 and 25° C. Extinction coefficient 0.18 cm^2/μmol at 247 nm. 1 TAME unit=19.2 USP units.

| Substance | specific activity [1] [USP/mg] | specific activity [2] [U/mg] | Response to TG2-treated gluten peptides (stimulatory index) [3] | Response to TG2-treated gluten peptides (stimulatory index) [4] | Response to TG2-treated gluten peptides (stimulatory index) [5] | Response to TG2-treated gluten peptides (stimulatory index) [6] | Response to TG2-treated gluten peptides (stimulatory index) [7] | Response to TG2-treated gluten peptides (stimulatory index) [8] | Response to TG2-treated gluten peptides (stimulatory index) [9] | Response to TG2-treated gluten peptides (stimulatory index) [10] | Response to TG2-treated gluten peptides (stimulatory index) [11] | Response to TG2-treated gluten peptides (stimulatory index) [12] | Response to TG2-treated gluten peptides (stimulatory index) [13] | Response to TG2-treated gluten peptides (stimulatory index) [14] | Response to TG2-treated gluten peptides (stimulatory index) [15] | Response to TG2-treated gluten peptides (stimulatory index) [16] | specific activity [17] [U/mg] | specific activity [18] [USP/mg] |
| --- | --- | --- | --- | --- | --- | --- | --- | --- | --- | --- | --- | --- | --- | --- | --- | --- | --- | --- |
| Chymotrypsin | 800 |  |  |  |  |  |  |  |  |  |  |  |  |  |  |  |  |  |
| Elastase |  | 5 |  |  |  |  |  |  |  |  |  |  |  |  |  |  |  |  |
| PQPQLPYPQPQLPY [α-II] |  |  | + (Stimulatory index (SI; T + APC + TG2-treated peptide divided by T + APC) of 3-10) | ++ (SI above 10) | ++ (SI above 10) | + (Stimulatory index (SI; T + APC + TG2-treated peptide divided by T + APC) of 3-10) | + (Stimulatory index (SI; T + APC + TG2-treated peptide divided by T + APC) of 3-10) | ++ (SI above 10) | + (Stimulatory index (SI; T + APC + TG2-treated peptide divided by T + APC) of 3-10) | + (Stimulatory index (SI; T + APC + TG2-treated peptide divided by T + APC) of 3-10) | + (Stimulatory index (SI; T + APC + TG2-treated peptide divided by T + APC) of 3-10) | ++ (SI above 10) | ++ (SI above 10) | ++ (SI above 10) | + (Stimulatory index (SI; T + APC + TG2-treated peptide divided by T + APC) of 3-10) | + (Stimulatory index (SI; T + APC + TG2-treated peptide divided by T + APC) of 3-10) |  |  |
| Pepsin |  |  |  |  |  |  |  |  |  |  |  |  |  |  |  |  | 4000 |  |
| QLQPFPQPQLPY [α-I] |  |  | − | + (Stimulatory index (SI; T + APC + TG2-treated peptide divided by T + APC) of 3-10) | − | − | + (Stimulatory index (SI; T + APC + TG2-treated peptide divided by T + APC) of 3-10) | + (Stimulatory index (SI; T + APC + TG2-treated peptide divided by T + APC) of 3-10) | − | − | − | + (Stimulatory index (SI; T + APC + TG2-treated peptide divided by T + APC) of 3-10) | + (Stimulatory index (SI; T + APC + TG2-treated peptide divided by T + APC) of 3-10) | + (Stimulatory index (SI; T + APC + TG2-treated peptide divided by T + APC) of 3-10) | ++ (SI above 10) | ++ (SI above 10) |  |  |
| QPQQPQQSFPQQQRP [γ-I] |  |  | − | − | + (Stimulatory index (SI; T + APC + TG2-treated peptide divided by T + APC) of 3-10) | − | + (Stimulatory index (SI; T + APC + TG2-treated peptide divided by T + APC) of 3-10) | − | − | − | − | − | + (Stimulatory index (SI; T + APC + TG2-treated peptide divided by T + APC) of 3-10) | − | − | − |  |  |
| QQxSQPQxPQQQQxPQQPQQF [Glu-5] |  |  | − | − | − | − | − | + (Stimulatory index (SI; T + APC + TG2-treated peptide divided by T + APC) of 3-10) | − | − | − | − | + (Stimulatory index (SI; T + APC + TG2-treated peptide divided by T + APC) of 3-10) | − | − | − |  |  |
| Trypsin |  |  |  |  |  |  |  |  |  |  |  |  |  |  |  |  |  | 2000 |
